Measurements published in patent US10758534B2 (Vertex Pharmaceuticals Incorporated, priority 2014, dated 2020).

Molecular target: T1, F508del (Homo sapiens, UniProt P13569, DEL508-508)
T1 construct: expressed in transfected cells
Assay: Protocol 2: FRET membrane potential optical assay (VIPR), identification of correction compounds
Type: cell-based
Settings: Table 3; compounds of Table 1 as modulators of CFTR activity; protocol not stated
Procedure, shortened: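 Correction of the F508del trafficking defect is scored as forskolin (10 μM)/genistein (20 μM)-stimulated Cl^− efflux in NIH3T3 mouse fibroblasts after a 16 hr, 37° C. compound exposure. Depolarization was followed optically using voltage-sensing FRET dyes.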

T1 sequence (P13569 with tags, fused parts or gaps DEL508-508): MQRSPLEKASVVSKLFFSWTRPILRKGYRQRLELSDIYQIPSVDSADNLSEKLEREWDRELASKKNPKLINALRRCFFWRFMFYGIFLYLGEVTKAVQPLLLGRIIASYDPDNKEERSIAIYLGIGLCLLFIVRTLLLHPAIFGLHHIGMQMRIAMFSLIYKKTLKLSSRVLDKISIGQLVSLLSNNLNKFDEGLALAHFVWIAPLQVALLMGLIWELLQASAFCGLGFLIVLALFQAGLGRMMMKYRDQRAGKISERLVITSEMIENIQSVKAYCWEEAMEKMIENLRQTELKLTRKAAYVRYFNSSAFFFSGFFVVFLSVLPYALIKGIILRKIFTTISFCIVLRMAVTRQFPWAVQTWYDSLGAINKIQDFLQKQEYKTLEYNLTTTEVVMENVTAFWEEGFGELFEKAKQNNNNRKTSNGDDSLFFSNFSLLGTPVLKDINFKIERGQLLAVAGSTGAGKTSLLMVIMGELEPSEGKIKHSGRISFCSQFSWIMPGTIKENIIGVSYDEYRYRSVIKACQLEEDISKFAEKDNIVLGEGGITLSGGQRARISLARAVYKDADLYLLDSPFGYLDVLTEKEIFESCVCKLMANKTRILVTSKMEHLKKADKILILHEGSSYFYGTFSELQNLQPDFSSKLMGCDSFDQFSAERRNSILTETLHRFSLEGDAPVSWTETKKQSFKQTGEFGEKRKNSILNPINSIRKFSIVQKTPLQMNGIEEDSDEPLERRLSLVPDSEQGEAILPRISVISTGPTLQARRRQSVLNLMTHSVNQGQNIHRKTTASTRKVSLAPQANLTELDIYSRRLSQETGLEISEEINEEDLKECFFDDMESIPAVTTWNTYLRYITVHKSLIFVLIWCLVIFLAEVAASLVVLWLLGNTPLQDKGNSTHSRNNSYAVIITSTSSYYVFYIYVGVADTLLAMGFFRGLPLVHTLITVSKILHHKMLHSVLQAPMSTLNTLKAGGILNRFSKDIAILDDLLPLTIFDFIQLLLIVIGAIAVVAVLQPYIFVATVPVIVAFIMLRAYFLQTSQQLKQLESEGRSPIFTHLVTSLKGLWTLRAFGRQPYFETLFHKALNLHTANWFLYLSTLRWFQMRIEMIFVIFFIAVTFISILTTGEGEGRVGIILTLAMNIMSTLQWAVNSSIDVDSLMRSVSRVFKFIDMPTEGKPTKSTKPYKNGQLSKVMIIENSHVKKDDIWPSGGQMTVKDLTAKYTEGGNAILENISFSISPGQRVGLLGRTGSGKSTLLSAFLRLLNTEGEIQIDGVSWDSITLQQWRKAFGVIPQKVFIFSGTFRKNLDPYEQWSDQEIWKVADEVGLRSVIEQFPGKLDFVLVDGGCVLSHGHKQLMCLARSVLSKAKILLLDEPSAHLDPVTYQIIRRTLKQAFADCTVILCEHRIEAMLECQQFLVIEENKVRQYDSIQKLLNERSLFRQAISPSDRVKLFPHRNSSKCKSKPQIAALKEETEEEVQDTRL

## COc1ccc(-c2ccc(C(=O)NS(=O)(=O)c3cccc(N)n3)c(Oc3c(C)cc(C)cc3C)n2)cn1 [Compound 531, N-[(6-amino-2-pyridyl)sulfonyl]-6-(6-methoxy-3-pyridyl)-2-(2,4,6-trimethylphenoxy)pyridine-3-carboxamide]
  EC30: +++ (“+++” means <3 uM)

## Cc1ccc(C(=O)NS(=O)(=O)c2cccc(N)n2)c(N2CCC[C@@H](c3ccccc3)C2)n1 [Compound 532, N-[(6-amino-2-pyridyl)sulfonyl]-6-methyl-2-[(3S)-3-phenyl-1-piperidyl]pyridine-3-carboxamide]
  EC30: ++ (“++” means between 3 uM and 10 uM)

## COc1ncc(-c2ccc(C(=O)NS(=O)(=O)c3cccc(N)n3)c(Oc3ccc(C)cc3C)n2)cc1C [Compound 533, N-[(6-amino-2-pyridyl)sulfonyl]-2-(2,4-dimethylphenoxy)-6-(6-methoxy-5-methyl-3-pyridyl)pyridine-3-carboxamide]
  EC30: +++ (“+++” means <3 uM)

## CC1CCN(c2nc(-c3ccc(OC(C)C)nc3)ccc2C(=O)NS(=O)(=O)c2ccn[nH]2)CC1 [Compound 534, 6-(6-isopropoxy-3-pyridyl)-2-(4-methyl-1-piperidyl)-N-(1H-pyrazol-5-ylsulfonyl)pyridine-3-carboxamide]
  EC30: ++ (“++” means between 3 uM and 10 uM)

## CCCOc1cc(-c2ccc(C(=O)NS(=O)(=O)c3cccc(N)n3)c(Oc3c(C)cc(C)cc3C)n2)ccc1Cl [Compound 535, N-[(6-amino-2-pyridyl)sulfonyl]-6-(4-chloro-3-propoxy-phenyl)-2-(2,4,6-trimethylphenoxy)pyridine-3-carboxamide]
  EC30: +++ (“+++” means <3 uM)

## CCOc1ccc(-c2ccc(C(=O)NS(=O)(=O)c3cccc(N)n3)c(N3CC(C)CC3(C)C)n2)c(C)c1 (centres unmarked) [Compound 536, N-[(6-amino-2-pyridyl)sulfonyl]-6-(4-ethoxy-2-methyl-phenyl)-2-(2,2,4-trimethylpyrrolidin-1-yl)pyridine-3-carboxamide]
  EC30: +++ (“+++” means <3 uM)

## CC(C)(C)c1ccc(C(=O)NS(=O)(=O)c2ccc(N)cc2)c(C2CCCCC2)n1 [Compound 537, N-(4-aminophenyl)sulfonyl-6-tert-butyl-2-cyclohexyl-pyridine-3-carboxamide]
  EC30: +++ (“+++” means <3 uM)

## Cc1cc(C)c(Oc2nc(C3CCC(C)(C)CC3)ccc2C(=O)NS(=O)(=O)c2cccc(N)n2)c(C)c1 [Compound 538, N-[(6-amino-2-pyridyl)sulfonyl]-6-(4,4-dimethylcyclohexyl)-2-(2,4,6-trimethylphenoxy)pyridine-3-carboxamide]
  EC30: +++ (“+++” means <3 uM)

## COc1ccnc2c1cc(C(=O)NS(=O)(=O)c1cccc(N)n1)n2Cc1c(C)cc(C)cc1C [Compound 539, N-[(6-amino-2-pyridyl)sulfonyl]-4-methoxy-1-[(2,4,6-trimethylphenyl)methyl]pyrrolo[2,3-b]pyridine-2-carboxamide]
  EC30: + (“+” means greater than 10 uM)

## C[C@H](c1ccccc1)n1nc(C(C)(C)C)cc1C(=O)NS(=O)(=O)c1cccc(N)c1 [Compound 540, N-(3-aminophenyl)sulfonyl-5-tert-butyl-2-[1(1R)-1-phenylethyl]pyrazole-3-carboxamide]
  EC30: + (“+” means greater than 10 uM)

## C[C@@H]1CC[C@H](C)N1c1nc(-c2cc(F)cc(OCC3CC3)c2)ccc1C(=O)NS(=O)(=O)c1ccc[nH]c1=O [Compound 541, 6-[3-(cyclopropylmethoxy)-5-fluoro-phenyl]-2-[(2S,5R)-2,5-dimethylpyrrolidin-1-yl]-N-[(2-oxo-1H-pyridin-3-yl)sulfonyl]pyridine-3-carboxamide]
  EC30: +++ (“+++” means <3 uM)

## CC(C)(C)c1ccc(C(=O)NS(=O)(=O)c2cccc(N)c2)c(-c2ccccc2)n1 [Compound 542, N-(3-aminophenyl)sulfonyl-6-tert-butyl-2-phenyl-pyridine-3-carboxamide]
  EC30: +++ (“+++” means <3 uM)

## Cc1cc(C)c(Oc2nc(-c3ccc(C(=O)NC(C)C)c(F)c3)ccc2C(=O)NS(=O)(=O)c2cccc(N)n2)c(C)c1 [Compound 543, N-[(6-amino-2-pyridyl)sulfonyl]-6-[3-fluoro-4-(isopropylcarbamoyl)phenyl]-2-(2,4,6-trimethylphenoxy)pyridine-3-carboxamide]
  EC30: ++ (“++” means between 3 uM and 10 uM)

## CC(C)COc1ccc(-c2ccc(C(=O)NS(=O)(=O)c3cccc(N)n3)c(N3[C@H](C)CC[C@@H]3C)n2)cn1 [Compound 544, N-[(6-amino-2-pyridyl)sulfonyl]-2-[(2S,5R)-2,5-dimethylpyrrolidin-1-yl]-6-(6-isobutoxy-3-pyridyl)pyridine-3-carboxamide]
  EC30: +++ (“+++” means <3 uM)

## Cc1cc(C)c(Oc2nc(-c3cc(F)ccc3F)ccc2C(=O)NS(=O)(=O)c2ccc[nH]c2=O)c(C)c1 [Compound 545, 6-(2,5-difluorophenyl)-N-[(2-oxo-1H-pyridin-3-yl)sulfonyl]-2-(2,4,6-trimethylphenoxy)pyridine-3-carboxamide]
  EC30: ++ (“++” means between 3 uM and 10 uM)

## Cc1cc(C)c(Oc2nc(-c3ccc(F)c(F)c3)ccc2C(=O)NS(=O)(=O)c2ccc[nH]c2=O)c(C)c1 [Compound 546, 6-(3,4-difluorophenyl)-N-[(2-oxo-1H-pyridin-3-yl)sulfonyl]-2-(2,4,6-trimethylphenoxy)pyridine-3-carboxamide]
  EC30: ++ (“++” means between 3 uM and 10 uM)

## CC(C)COc1cc(F)cc(-c2ccc(C(=O)NS(=O)(=O)c3cccc(N)n3)c(N3CC[C@H](C)C3(C)C)n2)c1 [Compound 547, N-[(6-amino-2-pyridyl)sulfonyl]-6-(3-fluoro-5-isobutoxy-phenyl)-2-[(3S)-2,2,3-trimethylpyrrolidin-1-yl]pyridine-3-carboxamide]
  EC30: +++ (“+++” means <3 uM)

## Cc1cc(C)c(Oc2nc(-c3ccc(C(F)(F)F)cc3)ccc2C(=O)NS(=O)(=O)c2cccc(N)n2)c(C)c1 [Compound 548, N-[(6-amino-2-pyridyl)sulfonyl]-6-[4-(trifluoromethyl)phenyl]-2-(2,4,6-trimethylphenoxy)pyridine-3-carboxamide]
  EC30: +++ (“+++” means <3 uM)

## CC(C)COc1cc(F)cc(-c2ccc(C(=O)NS(=O)(=O)c3cccc4[nH]ccc34)c(N3CC(C)CC3(C)C)n2)c1 (centres unmarked) [Compound 549, 6-(3-fluoro-5-isobutoxy-phenyl)-N-(1H-indol-4-ylsulfonyl)-2-(2,2,4-trimethylpyrrolidin-1-yl)pyridine-3-carboxamide]
  EC30: +++ (“+++” means <3 uM)

## COc1ccc(-c2nc(C(C)(C)C)ccc2C(=O)NS(=O)(=O)c2cccc(N)c2)cc1 [Compound 550, N-(3-aminophenyl)sulfonyl-6-tert-butyl-2-(4-methoxyphenyl)pyridine-3-carboxamide]
  EC30: ++ (“++” means between 3 uM and 10 uM)

## CCOc1cc(F)cc(-c2ccc(C(=O)NS(=O)(=O)c3cccc(N)n3)c(N3[C@H](C)CC[C@@H]3C)n2)c1 [Compound 551, N-[(6-amino-2-pyridyl)sulfonyl]-2-[(2R,5S)-2,5-dimethylpyrrolidin-1-yl]-6-(3-ethoxy-5-fluoro-phenyl)pyridine-3-carboxamide]
  EC30: +++ (“+++” means <3 uM)

## CCCOc1ccc(F)c(-c2ccc(C(=O)NS(=O)(=O)c3ccc[nH]c3=O)c(Oc3c(C)cc(C)cc3C)n2)c1 [Compound 552, 6-(2-fluoro-5-propoxy-phenyl)-N-[(2-oxo-1H-pyridin-3-yl)sulfonyl]-2-(2,4,6-trimethylphenoxy)pyridine-3-carboxamide]
  EC30: ++ (“++” means between 3 uM and 10 uM)

## CC(C)COc1cc(F)cc(-c2ccc(C(=O)NS(=O)(=O)c3ccn[nH]3)c(N3CCC(C(C)C)CC3)n2)c1 [Compound 553, 6-(3-fluoro-5-isobutoxy-phenyl)-2-(4-isopropyl-1-piperidyl)-N-(1H-pyrazol-5-ylsulfonyl)pyridine-3-carboxamide]
  EC30: +++ (“+++” means <3 uM)

## Cc1cc(C)c(CN2Cc3c(-c4ccccc4)cccc3C2C(=O)NS(=O)(=O)c2cccc(N)n2)c(C)c1 (centres unmarked) [Compound 554, N-[(6-amino-2-pyridyl)sulfonyl]-4-phenyl-2-[(2,4,6-trimethylphenyl)methyl]isoindoline-1-carboxamide]
  EC30: +++ (“+++” means <3 uM)

## CC(C)COc1cc(F)cc(-c2ccc(C(=O)NS(=O)(=O)c3cccc(N)n3)c(N3CC(C)CC3(C)C)n2)c1 (centres unmarked) [Compound 555, N-[(6-amino-2-pyridyl)sulfonyl]-6-(3-fluoro-5-isobutoxy-phenyl)-2-(2,2,4-trimethylpyrrolidin-1-yl)pyridine-3-carboxamide]
  EC30: +++ (“+++” means <3 uM)

## CC(C)COc1cc(F)cc(-c2ccc(C(=O)NS(=O)(=O)c3ccn[nH]3)c(N3CCC(CC#N)CC3)n2)c1 [Compound 556, 2-[4-(cyanomethyl)-1-piperidyl]-6-(3-fluoro-5-isobutoxy-phenyl)-N-(1H-pyrazol-5-ylsulfonyl)pyridine-3-carboxamide]
  EC30: + (“+” means greater than 10 uM)

## CC(C)Oc1ccc(-c2ccc(C(=O)NS(=O)(=O)c3cccc(N)n3)c(N3CC[C@H](C)C3(C)C)n2)cn1 [Compound 557, N-[(6-amino-2-pyridyl)sulfonyl]-6-(6-isopropoxy-3-pyridyl)-2-[(3S)-2,2,3-trimethylpyrrolidin-1-yl]pyridine-3-carboxamide]
  EC30: +++ (“+++” means <3 uM)

## CC(C)Oc1ccc(-c2ccc(C(=O)NS(=O)(=O)c3cccc(N)n3)c(N3CCCC(c4ccc(F)c(F)c4)C3)n2)cn1 (centres unmarked) [Compound 558, N-[(6-amino-2-pyridyl)sulfonyl]-2-[3-(3,4-difluorophenyl)-1-piperidyl]-6-(6-isopropoxy-3-pyridyl)pyridine-3-carboxamide]
  EC30: +++ (“+++” means <3 uM)

## Cc1ccc(Oc2nc(-c3cc(F)cc(OC(C)C)c3)ccc2C(=O)NS(=O)(=O)c2nccnc2N)c(C)c1 [Compound 559, N-(3-aminopyrazin-2-yl)sulfonyl-2-(2,4-dimethylphenoxy)-6-(3-fluoro-5-isopropoxy-phenyl)pyridine-3-carboxamide]
  EC30: +++ (“+++” means <3 uM)
